For 8 compounds, IC50 results are on record in US4927565A, “5-substituted amino-4-hydroxy-pentenoic acid derivatives and their use” (Banyu Pharmaceutical Co., Ltd., priority 1986, dated 1990).

Each structure is given as a SMILES string. pIC50: −log10 of the molar value.

The assay has as its target T1, Human plasma renin (Homo sapiens, UniProt P00797).
T1 construct: from tissue; host or cells: human plasma
T1 sequence (P00797 67-406): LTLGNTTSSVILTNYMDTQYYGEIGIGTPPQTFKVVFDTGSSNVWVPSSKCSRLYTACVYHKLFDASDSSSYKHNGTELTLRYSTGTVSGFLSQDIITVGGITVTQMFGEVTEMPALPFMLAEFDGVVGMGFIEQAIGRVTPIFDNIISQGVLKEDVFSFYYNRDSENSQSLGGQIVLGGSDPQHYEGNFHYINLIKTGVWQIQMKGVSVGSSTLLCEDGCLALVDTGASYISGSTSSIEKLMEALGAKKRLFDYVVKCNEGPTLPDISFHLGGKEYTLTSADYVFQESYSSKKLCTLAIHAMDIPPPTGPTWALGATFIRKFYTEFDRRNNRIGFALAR
The assay can be described thus: Human plasma renin inhibiting activities (angiotensin I measured by radio immunoassay). It counts as biochemical. As to conditions: pH7.4, 37° C., one hour, read-out: 50% inhibition concentration IC50. As for the experimental part:
To 156 μl of a 0.2M sodium phosphate buffer solution (pH7.4), 40 μl of a solution mixture of 43 mM 8-hydroxyquinoline and 100 mM disodium ethylenediamine tetraacetate, 4 μl of dimethyl sulfoxide or a dimethyl sulfoxide solution of an inhibitor and 200 μl of human plasma were added and reacted at 37° C. for one hour. Then, pepstatin was added thereto to terminate the reaction, and the amount of the resulting angiotension I was measured by radio immunoassay whereby the inhibiting activity was determined.
On to `CCCC[C@H](NC(=O)[C@H](Cc1cccc2ccccc12)NC(=O)OCc1ccccc1)C(=O)N[C@@H](CC(C)C)[C@@H](O)/C=C(\C(=O)NCC(C)C)C(C)C` [Compound G, (4S,5S)-5-(L-N-benzyloxycarbonylnaphthylalanyl-L-norleucyl)amino-4-hydroxy-2-isopropyl-7-methyl-2(Z)-octenoic acid isobutylamide], for which the pIC50 was 6.59.
Next, `CCCC[C@H](NC(=O)[C@H](Cc1cccc2ccccc12)NC(=O)OCc1ccccc1)C(=O)N[C@@H](CC(C)C)[C@@H](O)/C=C(\CC)C(=O)NCC(C)C` [Compound B, (4S,5S)-5-(L-N-benzyloxycarbonylnaphthylalanyl-L-norleucyl)amino-4-hydroxy-2-ethyl-7-methyl-2(E)-octenoic acid isobutylamide]: 7.72.
The value for `CCCC[C@H](NC(=O)[C@H](Cc1cccc2ccccc12)NC(=O)OCc1ccccc1)C(=O)N[C@@H](CC(C)C)[C@@H](O)/C=C(/CCC)C(=O)NCC(C)C` [Compound E, (4S,5S)-5-(L-N-benzyloxycarbonylnaphthylalanyl-L-norleucyl)amino-4-hydroxy-2-propyl-7-methyl-2(Z)-octenoic acid isobutylamide] was 6.51; that for `CCCC[C@H](NC(=O)[C@H](Cc1cccc2ccccc12)NC(=O)OCc1ccccc1)C(=O)N[C@@H](CC(C)C)[C@@H](O)/C=C(/CC)C(=O)NCC(C)C` [Compound C, (4S,5S)-5-(L-N-benzyloxycarbonylnaphthylalanyl-L-norleucyl)amino-2-ethyl-4-hydroxy-7-methyl-2(Z)-octenoic acid isobutylamide] was 7.17; that for `CCCC[C@H](NC(=O)[C@H](Cc1cccc2ccccc12)NC(=O)OCc1ccccc1)C(=O)N[C@@H](CC(C)C)[C@@H](O)/C=C/C(=O)NCC(C)C` [Compound A, (4S,5S)-5-(L-N-benzyloxycarbonylnaphthylalanyl-L-norleucyl)amino-4-hydroxy-7-methyl-2(E)-octenoic acid isobutylamide] was 5.85.
Next, `CCCC[C@H](NC(=O)[C@H](Cc1cccc2ccccc12)NC(=O)OCc1ccccc1)C(=O)N[C@@H](CC(C)C)[C@@H](O)/C=C(\CCCO)C(=O)NCC(C)C` [Compound H, (4S,5S)-5-(L-N-benzyloxycarbonylnaphthylalanyl-L-norleucyl)-amino-4-hydroxy-2-(3-hydroxypropyl)-7-methyl-2(E)-octenoic acid isobutylamide]: 6.80; `CCCC[C@H](NC(=O)[C@H](Cc1cccc2ccccc12)NC(=O)OCc1ccccc1)C(=O)N[C@@H](CC(C)C)[C@@H](O)/C=C(\CCC)C(=O)NCC(C)C` [Compound D, (4S,5S)-5-(L-N-benzyloxycarbonylnaphthylalanyl-L-norleucyl)amino-4-hydroxy-2-propyl-7-methyl-2(E)-octenoic acid isobutylamide]: 6.92; `CCCC[C@H](NC(=O)[C@H](Cc1cccc2ccccc12)NC(=O)OCc1ccccc1)C(=O)N[C@@H](CC(C)C)[C@@H](O)/C=C(/C(=O)NCC(C)C)C(C)C` [Compound F, (4S,5S)-5-(L-N-benzyloxycarbonylnaphthylalanyl-L-norleucyl)amino-4-hydroxy-2-isopropyl-7-methyl-2(E)-octenoic acid isobutylamide]: 6.82.
